Structures can show the parent of a compound that is named as a salt.
SMILES	melting point [°C]
COc1cc(-c2cc(C(F)(F)F)nn2-c2ccc(S(C)(=O)=O)cc2)ccc1-c1cocn1 (as salt: hydrochloride) [Example 111, 4-{2-Methoxy-4-[1-[4-(methylsulfonyl)phenyl]-3-(trifluoromethyl)-1H-pyrazol-5-yl]phenyl}-1,3-oxazole]	171 to 173
Cc1noc(-c2ccc(-c3cscn3)cc2)c1-c1ccc(S(N)(=O)=O)cc1 [Example 190, 4-[3-Methyl-5-[4-(1,3-thiazol-4-yl)phenyl]-4-isoxazolyl]benzenesulfonamide]	236
CS(=O)(=O)c1ccc(-n2cc(C(F)(F)F)nc2-c2ccc(-c3cscn3)cc2)cc1F [Example 153, 1-[3-Fluoro-4-(methylsulfonyl)phenyl]-2-[4-(4-thiazolyl)phenyl]-4-trifluoromethyl-1H-imidazole]	112.5 to 115
Cc1scnc1-c1ccc(-c2cc(C(F)(F)F)nn2-c2ccc(S(C)(=O)=O)c(F)c2)cc1 [Example 104, 4-{4-[1-[3-Fluoro-4-(methylsulfonyl)phenyl]-3-(trifluoromethyl)-1H-pyrazol-5-yl]phenyl}-5-methyl-1,3-thiazole]	170 to 172
CS(=O)(=O)c1ccc(-n2nc(C(F)(F)F)cc2-c2ccc(-c3ccco3)cc2)cc1F [Example 60, 1-[3-Fluoro-4-(methylsulfonyl)phenyl]-5-[4-(2-furyl)phenyl]-3-(trifluoromethyl)-1H-pyrazole]	129 to 130
CS(=O)(=O)c1ccc(-n2nc(C(F)(F)F)cc2-c2ccc(-c3nccs3)cc2)cc1 [Example 22, 1-[4-(Methylsulfonyl)phenyl]-5-[4-(2-thiazolyl)phenyl]-3-trifluoromethyl-1H-pyrazole]	206 to 207
Cc1ccc(-c2ccc(S(C)(=O)=O)cc2)n1-c1ccc(-c2ccsc2)cc1 [Example 46, 2-Methyl-5-[4-(methylsulfonyl)phenyl]-1-[4-(3-thienyl)phenyl]-1H-pyrrole]	187 to 188
Cc1cc(S(C)(=O)=O)ccc1-n1nc(C(F)(F)F)cc1-c1ccc(-c2ccco2)cc1 (as salt: hydrochloride) [Example 142, 5-[4-(2-Furyl)phenyl]-1-[4-(methylsulfonyl)-2-methylphenyl]-3-trifluoromethyl-1H-pyrazole]	205
COc1cc(-n2nc(C(F)(F)F)cc2-c2ccc(-c3ccco3)cc2)ccc1S(C)(=O)=O (as salt: hydrochloride) [Example 136, 5-[4-(2-Furyl)phenyl]-1-[3-methoxy-4-(methylsulfonyl)phenyl]-3-trifluoromethyl-1H-pyrazole]	138.9
CS(=O)(=O)c1ccc(-n2nc(C(F)(F)F)cc2-c2ccc(-c3cncs3)cc2)cc1 [Example 24, 1-[4-(Methylsulfonyl)phenyl]-5-[4-(5-thiazolyl)phenyl]-3-trifluoromethyl-1H-pyrazole]	169 to 170
CS(=O)(=O)c1ccc(-n2nc(C(F)(F)F)cc2-c2ccc(-c3cccs3)cc2)cc1F [Example 86, 1-[3-Fluoro-4-(methylsulfonyl)phenyl]-5-[4-(2-thienyl)phenyl]-3-(trifluoromethyl)-1H-pyrazole]	75 to 76
Cc1onc(-c2ccc(S(C)(=O)=O)cc2)c1-c1ccc(-c2cscn2)cc1 [Example 189, 5-Methyl-3-[4-(methylsulfonyl)phenyl]-4-[4-(1,3-thiazol-4-yl)phenyl]isoxazole]	159
Cc1cc(-n2c(C)ccc2-c2ccc(S(C)(=O)=O)cc2)ccc1-c1ccoc1 [Example 39, 1-[4-(3-Furyl)-3-methylphenyl]-2-methyl-5-[4-(methylsulfonyl)phenyl]-1H-pyrrole]	69 to 75
Cc1ccc(-c2ccc(S(C)(=O)=O)cc2)n1-c1ccc(-c2cccs2)cc1 [Example 45, 2-Methyl-5-[4-(methylsulfonyl)phenyl]-1-[4-(2-thienyl]phenyl]-1H-pyrrole]	185 to 186
CS(=O)(=O)c1ccc(-n2nc(C(F)(F)F)cc2-c2ccc(-c3cscn3)cc2)cc1Cl [Example 158, 1-[3-Chloro-4-(methylsulfonyl)phenyl]-5-[4-(4-thiazolyl)phenyl]-3-trifluoromethyl-1H-pyrazole]	103 to 107
Cc1cc(-c2ccco2)ccc1-c1cc(C(F)(F)F)nn1-c1ccc(S(C)(=O)=O)cc1 (as salt: hydrochloride) [Example 78, 1-[4-(Methylsulfonyl)phenyl]-5-[4-(2-furyl)-2-methylphenyl]-3-(trifluoromethyl)-1H-pyrazole]	175 to 177
CONC(=O)c1cc(-c2ccc(-c3ccco3)cc2)n(-c2ccc(S(C)(=O)=O)c(F)c2)n1 (as salt: hydrochloride) [Example 134, N-Methoxy-1-[3-fluoro-4-(methylsulfonyl)phenyl]-5-[4-(2-furyl)phenyl]-1H-pyrazole-3-carboxamide]	126 to 128
Cc1cc(-c2ccnn2-c2ccc(S(N)(=O)=O)c(F)c2C(F)F)ccc1-c1cscn1 (as salt: hydrochloride) [Example 195, 3-(Difluoromethyl)-2-fluoro-4-[5-[3-methyl-4-(1,3-thiazol-4-yl)phenyl]-1H-pyrazol-1-yl]benzenesulfonamide]	204.3
CS(=O)(=O)c1ccc(-n2nc(C(=O)N3CCOCC3)cc2-c2ccc(-c3ccco3)cc2)cc1F [Example 130, 1-[3-Fluoro-4-(methylsulfonyl)phenyl]-5-[4-(2-furyl)phenyl]-3-(4-morpholinecarbonyl)-1H-pyrazole]	221 to 222
NS(=O)(=O)c1ccc(-n2nc(C(F)(F)F)cc2-c2ccc(-c3ccco3)cc2)cc1Cl (as salt: hydrochloride) [Example 144, 2-Chloro-4-[5-[4-(2-furyl)phenyl]-3-(trifluoromethyl)-1H-pyrazol-1-yl]benzenesulfonamide]	192.6
Cc1ccc(-c2ccc(S(C)(=O)=O)cc2)n1-c1ccc(-c2ccc[nH]2)cc1 [Example 47, 2-Methyl-5-[4-(methylsulfonyl)phenyl]-1-[4-(2-pyrrolyl)phenyl]-1H-pyrrole]	225 to 227
Cc1nc(-c2ccc(-c3ccco3)cc2)c(-c2ccc(S(C)(=O)=O)cc2)o1 [Example 51, 4-[4-(2-Furyl)phenyl]-2-methyl-5-[4-(methylsulfonyl)phenyl]oxazole]	143 to 144
Cc1cc(-c2cc(C(F)(F)F)nn2-c2ccc(S(C)(=O)=O)cc2)ccc1-c1cocn1 (as salt: hydrochloride) [Example 112, 4-{2-Methyl-4-[1-[4-(methylsulfonyl)phenyl]-3-(trifluoromethyl)-1H-pyrazol-5-yl]phenyl}-1,3-oxazole]	148 to 150

Now from value to compound:

melting point [°C]	SMILES
125 to 127	CS(=O)(=O)c1ccc(-n2nc(C(F)(F)F)cc2-c2ccc(-c3cscn3)cc2)cc1F [Example 99, 4-{4-[1-[3-Fluoro-4-(methylsulfonyl)phenyl]-3-(trifluoromethyl)-1H-pyrazol-5-yl]phenyl}-1,3-thiazole]
137 to 138	CS(=O)(=O)c1ccc(-n2nc(C(F)(F)F)cc2-c2ccc(-c3cc4ccccc4o3)cc2)cc1 [Example 4, 1-[4-(Methylsulfonyl)phenyl]-5-[4-(benzo[b]furan-2-yl)phenyl]-3-trifluoromethyl-1H-pyrazole]
97 to 99	COc1cc(-c2cc(C(F)(F)F)nn2-c2ccc(S(N)(=O)=O)c(F)c2)ccc1-c1cscn1 (as salt: hydrochloride) [Example 175, 2-Fluoro-4-[5-[3-methoxy-4-(1,3-thiazol-4-yl)phenyl]-3-(trifluoromethyl)-1H-pyrazol-1-yl]benzenesulfonamide]
215	Cc1ccc(-c2ccc(S(C)(=O)=O)c(F)c2)n1-c1ccc(-c2cscn2)cc1 [Example 151, 5-[3-Fluoro-4-(methylsulfonyl)phenyl]-2-methyl-1-[4-(4-thiazolyl)phenyl]-1H-pyrrole]
183 to 185	Cc1nc(-c2ccc(-c3cccs3)cc2)c(-c2ccc(S(C)(=O)=O)cc2)o1 [Example 50, 2-Methyl-5-[4-(methylsulfonyl)phenyl]-4-[4-(2-thienyl)phenyl]oxazole]
138 to 140	COc1cc(-c2cc(C(F)(F)F)nn2-c2ccc(S(C)(=O)=O)cc2)ccc1-c1ccco1 (as salt: hydrochloride) [Example 81, 1-[4-(Methylsulfonyl)phenyl]-5-[4-(2-furyl)-3-methoxyphenyl]-3-(trifluoromethyl)-1H-pyrazole]
177 to 178	Cc1nc(-c2ccc(-c3cscn3)c(C)c2)c(-c2ccc(S(C)(=O)=O)c(F)c2)o1 [Example 173, 5-[3-Fluoro-4-(methylsulfonyl)phenyl]-2-methyl-4-[3-methyl-4-(1,3-thiazol-4-yl)phenyl]-1,3-oxazole]
127 to 131	Cc1ccc(-c2ccc(S(C)(=O)=O)cc2)n1-c1ccc(-c2ccco2)c(Cl)c1 [Example 42, 1-[3-Chloro-4-(2-furyl)phenyl]-2-methyl-5-[4-(methylsulfonyl)phenyl]-1H-pyrrole]
190.3	NS(=O)(=O)c1ccc(-n2nc(C(F)(F)F)cc2-c2ccc(-c3ccco3)cc2)c(Cl)c1 (as salt: hydrochloride) [Example 140, 3-Chloro-4-[5-[4-(2-furyl)phenyl]-3-(trifluoromethyl)-1H-pyrazol-1-yl]benzenesulfonamide]
160 to 162	Cc1cc(-n2c(C)ccc2-c2ccc(S(C)(=O)=O)cc2)ccc1-c1ccco1 [Example 40, 1-[4-(2-Furyl)-3-methylphenyl]-2-methyl-5-[4-(methylsulfonyl)phenyl]-1H-pyrrole]
239 to 240	CS(=O)(=O)c1ccc(-n2nc(C(N)=O)cc2-c2ccc(-c3ccco3)cc2)cc1F [Example 132, 1-[3-Fluoro-4-(methylsulfonyl)phenyl]-5-[4-(2-furyl)phenyl]-1H-pyrazole-3-carboxamide]
193 to 194	Cc1cc(-c2ccc(-c3ccco3)cc2)n(-c2ccc(S(C)(=O)=O)cc2)c1 [Example 59, 2-[4-(2-Furyl)phenyl]-4-methyl-1-[4-(methylsulfonyl)phenyl]-1H-pyrrole]

Reference: patent US6949536B2, “Sulfonylbenzene compounds as anti-inflammatory/analgesic agents” (Pfizer, Inc., priority 1998, dated 2005)
